Laboratory results: patent US12024506B2, “Compounds” (Oxford University Innovation Limited, priority 2018, dated 2024)

Tests used:
[1] = biological target: T1, GST-human KRas166 (G12V) GPPNHP (Homo sapiens, UniProt P01116, G12V); experiment: KRas small-molecule screening by SPR (Biacore T200); format: binding; conditions: compound 100 uM, 5% DMSO buffer; immobilised GST-KRas166 (G12V) GPPNHP
T1 construct: made in house; host or cells: E. coli C41(DE3)
Procedure, shortened: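 Biacore T200 screen: compounds at 100 uM final in 5% DMSO buffer (100 mM NaCl, 5 mM MgCl2) over GPPNHP-bound GST-KRas166 G12V captured by anti-GST antibody (10,000–15,000 RU) versus GST-only channel. Expected 1:1 Rmax 63 RU; DMSO solvent correction applied.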

[2] = system: H358 cells (ATCC CRL-5807); experiment: Cell viability assay 1 (CellTiter-Glo), H358 cells; format: cell-based; conditions: Homo sapiens, NCI-H358, 48 h, first value of the cell, read-out: Cell Viability H358 (concentration that decreases cell viability by 50%)
Procedure, shortened: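 H358 cells were grown in RPMI-1640 with 10% FCS and 2 mM L-glutamine, plated at 5000 cells/well and allowed to adhere overnight. Compound was added in 0.5% DMSO final for 48 h at 37° C. Viability was read by CellTiter-Glo luminescence, with the 50% viability-reducing concentration derived from dose-response curves.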

| SMILES | SPR Response Units [1] [Response Units] | IC50 [2] [µM] |
| --- | --- | --- |
| COc1nc(-c2cccc3c2OCCO3)ccc1Nc1ccc(CN(C)C)cc1 [compound 56, [6-(2,3-Dihydro-benzo[1,4]dioxin-5-yl)-2-methoxy-pyridin-3-yl]-(4-dimethylaminomethyl-phenyl)-amine] | 116 | 12 |
| COc1cc(-c2cccc3c2OCCO3)ccc1Nc1cccc(CN(C)C)c1.O=CO [compound 72, [4-(2,3-Dihydro-benzo[1,4]dioxin-5-yl)-2-methoxy-phenyl]-(3-dimethylaminomethyl-phenyl)-amine formate salt] | 56 | 15.3 |
